Test results from patent publication US9770022B2, “N-cycloalkyl-N-[(bicyclylphenyl)methylene]-(thio)carboxamide derivatives” (BAYER CROPSCIENCE AG, priority 2013, dated 2017).
Where two headings read alike, the source gives them in different places.

Tests used:
[1] = system: Septoria tritici; assay: In vivo preventive test on Septoria tritici (wheat); details: 500 ppm of active ingredient, evaluated 24 days after inoculation
Description: (§1) Solvent: 5% by volume of Dimethyl sulfoxide
(§2) • 10% by volume of Acetone Emulsifier: 1 μl of Tween® 80 per mg of active ingredient
(§3) The active ingredients are made soluble and homogenized in a mixture of Dimethyl sulfoxide/Acetone/Tween® 80 and then diluted in water to the desired concentration.
(§4) The young plants of wheat are treated by spraying the active ingredient prepared as described above. Control plants are treated only with an aqueous solution of Acetone/Dimethyl sulfoxide/Tween® 80.
After 24 hours, the plants are contaminated by spraying the leaves with an aqueous suspension of Septoria tritici spores. The contaminated wheat plants are incubated for 72 hours at 18° C. and at 100% relative humidity and then for 21 days at 20° C. and at 90% relative humidity.
The test is evaluated 24 days after the inoculation. 0% means an efficacy which corresponds to that of the control plants while an efficacy of 100% means that no disease is observed.

[2] = system: Alternaria brassicae; assay: In vivo preventive test on Alternaria brassicae (leaf spot on radish); details: 500 ppm of active ingredient, spray 24 hours before inoculation, evaluated 6 days after inoculation
Description: as §1, §2, §3
The young plants of radish are treated by spraying the active ingredient prepared as described above. Control plants are treated only with an aqueous solution of Acetone/Dimethyl sulfoxide/Tween® 80.
After 24 hours, the plants are contaminated by spraying the leaves with an aqueous suspension of Alternaria brassicae spores. The contaminated radish plants are incubated for 6 days at 20° C. and at 100% relative humidity.
The test is evaluated 6 days after the inoculation. 0% means an efficacy which corresponds to that of the control plants while an efficacy of 100% means that no disease is observed.

[3] = system: Pyrenophora teres; assay: In vivo preventive test on Pyrenophora teres (barley); details: 500 ppm of active ingredient, evaluated 14 days after inoculation
Description: as §1, §2, §3
The young plants of barley are treated by spraying the active ingredient prepared as described above. Control plants are treated only with an aqueous solution of Acetone/Dimethyl sulfoxide/Tween® 80.
After 24 hours, the plants are contaminated by spraying the leaves with an aqueous suspension of Pyrenophora teres spores. The contaminated barley plants are incubated for 48 hours at 20° C. and at 100% relative humidity and then for 12 days at 20° C. and at 70-80% relative humidity.
The test is evaluated 14 days after the inoculation. 0% means an efficacy which corresponds to that of the control plants while an efficacy of 100% means that no disease is observed.

[4] = system: Puccinia recondita; assay: In vivo preventive test on Puccinia recondita (brown rust on wheat); details: 500 ppm of active ingredient, evaluated 11 days after inoculation
Description: as §1, §2, §3, §4
After 24 hours, the plants are contaminated by spraying the leaves with an aqueous suspension of Puccinia recondita spores. The contaminated wheat plants are incubated for 24 hours at 20° C. and at 100% relative humidity and then for 10 days at 20° C. and at 70-80% relative humidity.
(§5) The test is evaluated 11 days after the inoculation. 0% means an efficacy which corresponds to that of the control plants while an efficacy of 100% means that no disease is observed.

[5] = log P by HPLC on reversed-phase column (C 18), EEC Directive 79/831 Annex V.A8; type: physicochemical; details: Table 1, HPLC C 18, 40° C., 0.1% aqueous formic acid and acetonitrile, gradient 10% to 90% acetonitrile, two values = mixture of endo and exo isomers
Description: In table 1, the log P values were determined in accordance with EEC Directive 79/831 Annex V.A8 by HPLC (High Performance Liquid Chromatography) on a reversed-phase column (C 18), using the method described below:
Temperature: 40° C.; Mobile phases: 0.1% aqueous formic acid and acetonitrile; linear gradient from 10% acetonitrile to 90% acetonitrile.
Calibration was carried out using unbranched alkan-2-ones (comprising 3 to 16 carbon atoms) with known log P values (determination of the log P values by the retention times using linear interpolation between two successive alkanones). lambda-max-values were determined using UV-spectra from 200 nm to 400 nm and the peak values of the chromatographic signals.

[6] = system: Sphaerotheca fuliginea; assay: In vivo preventive test on Sphaerotheca fuliginea (powdery mildew on cucurbits); details: 500 ppm of active ingredient; gherkin; evaluated 15 days after inoculation
Description: as §1, §2, §3
The young plants of gherkin are treated by spraying the active ingredient prepared as described above. Control plants are treated only with an aqueous solution of Acetone/Dimethyl sulfoxide/Tween® 80.
After 24 hours, the plants are contaminated by spraying the leaves with an aqueous suspension of Sphaerotheca fuliginea spores. The contaminated gherkin plants are incubated for 72 hours at 18° C. and at 100% relative humidity and then for 12 days at 20° C. and at 70-80% relative humidity.
The test is evaluated 15 days after the inoculation. 0% means an efficacy which corresponds to that of the control plants while an efficacy of 100% means that no disease is observed.

[7] = system: Uromyces appendiculatus; assay: In vivo preventive test on Uromyces appendiculatus (bean rust); details: Uromyces appendiculatus, 264 h
Description: as §1, §2, §3
The young plants of bean are treated by spraying the active ingredient prepared as described above. Control plants are treated only with an aqueous solution of Acetone/Dimethyl sulfoxide/Tween® 80.
After 24 hours, the plants are contaminated by spraying the leaves with an aqueous suspension of Uromyces appendiculatus spores. The contaminated bean plants are incubated for 24 hours at 20° C. and at 100% relative humidity and then for 10 days at 20° C. and at 70-80% relative humidity.
as §5

| logP [5] | SMILES | Efficacy [1] [%] | Efficacy [2] [%] | Efficacy [3] [%] | Efficacy [4] [%] | Efficacy [6] [%] | chromatographic logP ([5]; reversed-phase HPLC column (C 18)) | pest or weed control at 500 ppm ([7]; read-out: Efficacy, 500 ppm of active ingredient, evaluated 11 days after inoculation) [%] | pest or weed control at 500 ppm ([7]; read-out: Efficacy, 500 ppm, evaluated 11 days after inoculation, Table F2 comparison) [%] | pest or weed control at 500 ppm ([7]; read-out: Efficacy, 500 ppm, evaluated 11 days after inoculation, Table F3 comparison) [%] |
| --- | --- | --- | --- | --- | --- | --- | --- | --- | --- | --- |
| 5.17 | Cn1nc(C(F)F)c(C(=O)N(Cc2ccccc2C23CCCCCC2C3(Cl)Cl)C2CC2)c1F (stereo not shown) [I.13] | 88 | 75 | 75 | 81 | 100 | – | – | – | – |
| 6.46 | CC(C)c1ccc(C2=CC3CCC2(C)C3(C)C)cc1CN(C(=O)c1c(C(F)F)nn(C)c1F)C1CC1 (stereo not shown) [I.16] | 100 | 79 | 94 | 94 | 100 | – | – | – | – |

| SMILES | logP [5] | Efficacy [1] [%] | Efficacy [2] [%] | Efficacy [3] [%] | Efficacy [4] [%] | Efficacy [6] [%] | chromatographic logP ([5]; reversed-phase HPLC column (C 18)) | pest or weed control at 500 ppm ([7]; read-out: Efficacy, 500 ppm of active ingredient, evaluated 11 days after inoculation) [%] | pest or weed control at 500 ppm ([7]; read-out: Efficacy, 500 ppm, evaluated 11 days after inoculation, Table F2 comparison) [%] | pest or weed control at 500 ppm ([7]; read-out: Efficacy, 500 ppm, evaluated 11 days after inoculation, Table F3 comparison) [%] |
| --- | --- | --- | --- | --- | --- | --- | --- | --- | --- | --- |
| CC(c1ccccc1C1CC2CCC1C2)N(C(=O)c1c(C(F)F)nn(C)c1F)C1CC1 (stereo not shown) [I.15, N-{1-[2-(bicyclo[2.2.1]hept-2-yl)phenyl]ethyl}-N-cyclopropyl-3-(difluoromethyl)-5-fluoro-1-methyl-1H-pyrazole-4-carboxamide] | 4.98 | 100 | 97 | 100 | 88 | 100 | 4.91 | 88 | ≥ 80 | ≥ 80 |
